This passage reports melting point and IC50 results from patent US6812237B2, “N-substituted peptidyl nitriles as cysteine cathepsin inhibitors” (Novartis AG, priority 2000, dated 2004).

The target in series [1] is recombinant human cathepsin B (Homo sapiens, UniProt P07858). Kind of series: in vitro cathepsin B assay. The format is biochemical. To be noted: Z-Arg-Arg-AMC substrate, pH 5.8 phosphate buffer, fluorescence at 20 minutes. The method, then:
The cathepsin inhibitory effects of the compound of the invention can be determined in vitro by measuring the inhibition of e.g. recombinant human cathepsins B, L and S. The buffer used in the assays is a 0.1 M pH 5.8 phosphate buffer containing EDTA (1.33 mM), DTT (2.7 mM) and Brij (0.03%).
The in vitro assays are carried out as follows:
To a microtiter well is added 100 uL of a 20 uM solution of inhibitor in assay buffer followed by 50 uL of a 6.4 mM solution of Z—Arg—Arg—AMC substrate (Peptides International) in assay buffer. After mixing, 50 uL of a 0.544 nM solution of recombinant human cathepsin B in assay buffer is added to the well, yielding a final inhibitor concentration of 10 uM. Enzyme activity is determined by measuring fluorescence of the liberated aminomethylcoumarin at […] using 380 nm excitation, at 20 minutes. % Enzyme inhibition is determined by comparison of this activity to that of a solution containing no inhibitor. Compounds are subsequently subjected to a dose response curve analysis to determine IC50 values.

As for `C=CCOC(=O)c1cccc(COCC(C#N)NC(=O)[C@H](Cc2cccc(C)c2)Nc2ccc(F)cc2)c1` (stereo in doubt) [Example 5, N-[2-[3-(allyloxycarbonyl)-benzyloxy]-1(S)-cyanoethyl]-3-methyl-Nα-(4-fluorophenyl)-L-phenylalaninamide], the melting point lay within 86 to 88 °C.
Regarding `Cc1cccc(C[C@H](Nc2ccccc2)C(=O)NC(C#N)COCc2cccc(C(=O)O)c2)c1` (stereo in doubt) [Example 6, N-[2-(3-Carboxy-benzyloxy)-1(S)-cyanoethyl]-3-methyl-Nα-phenyl-L-phenylalaninamide], the melting point is 135 to 137 °C. Besides, in series [1], the IC50 was around 100 nM.
With `N#C[C@@H](COCc1cccc(C(=O)O)c1)NC(=O)C1(Nc2ccccc2)CCCCC1` [Example 14 (a), N-[2-(3-carboxybenzyloxy)-1-(S)-cyanoethyl]-1-(phenylamino)-cyclohexanecarboxamide], the melting point is 80 to 83 °C.
Still for that read-out and setting: then `N#CCNC(=O)CN(c1ccccc1)C1Cc2ccccc2C1` [Example 14 (b), N-(cyanomethyl)-Nα-(phenyl)-indan-2-yl-glycine-amide], with 169 to 170 °C.
